Like-named read-outs stand apart in the source and are kept apart here.
Key:
[1] = Phase I clinical trials; cited from earlier work
[2] = test system: patient with a severe form of Alzheimer's disease with incontinence of stool and urine; conditions: one patient
Experimental: (§1) A patient with a severe form of Alzheimer's disease with incontinence of stool and urine was given an inhaled gas mixture containing 3% (v/v) hydrogen gas and 21% (v/v) oxygen gas 2× daily for one hour.
In more detail, the patient was a person who was diagnosed with typical Alzheimer's disease in 2011 and was administered Alzheimer's drugs such as Donepezil, Galantamine, Lithium, etc. The condition was progressively worsening, the ADAS-cog score was 48/70, it was a severe form of Alzheimer's disease.
The patient was unable to recall their date of birth at that time, but was able to walk to the toilet to urinate or defecate on their own. Due to the rapid deterioration of their condition, other treatments were not possible, so hydrogen gas inhalation was started as an adjunctive/complementary therapy on Apr. 19, 2019.

[3] = test system: patients with Alzheimer's disease; conditions: for changes in ADAS-cog scores versus control group not inhaling hydrogen gas: FIG. 2
Experimental: The ADAS-cog assesses and scores word list equipment, speaking ability, verbal comprehension, speech difficulties in spontaneous speech, completion of commands, object and finger naming, constructional tasks, ideomotor skills, orientation, word recognition, and ability to reproduce test instructions. The range of scores is from 0 to 70, the higher the score, the greater the cognitive impairment (normal→several).
(§2) A mixture of hydrogen gas 3% (v/v) and oxygen gas 21% (v/v) was administered to 8 patients with Alzheimer's disease for 1 hour 2× per day. Inhalation was continued for a period of 6 months, after which hydrogen gas inhalation was discontinued and progress monitored.
(§3) Treatment efficacy was assessed by clinical assessment using ADAS-cog and neural quality (integrity) was assessed by MRI using DTI.
Statistical significance was assessed by Student's t-test, * indicates outputs for p¿ 0.05, ** for p¿ 0.01, indicating significant statistical significance.

[4] = test system: patients with Alzheimer's disease; conditions: for DTI area at FA value of 0.2 (neural quality): FIG. 3; for normalised DTI value FA=0.2/FA=0.1, statistical analysis: Student's t-test
Experimental: (§4) For explanation, we note that MRIs of the brain were performed • at the radiology department of Nishijima Hospital and the results were sent to the doctors via an electronic charting system. Digital tractographic imaging was performed using Neuro3D and GRAPPA technology, with five starting points set at locations where nerve bundles passed through the entire hippocampus. DTI was obtained at fractional anisotropy (FA) values of 0.1 and 0.2. The size of the pathway (tract) was calculated from the number of pixels in the pathway (tract) display, the number of pixels was calculated using Image J software. DTI at a fractional anisotropy (FA) value of 0.1 reflects visualization of the neuron as a whole, DTI reflects at a fractional anisotropy (FA) value of 0.2 • to the neural quality of the height visualisation.
For example, the progression of nerve fibers in the hippocampal region of the temporal lobe of the subject's brain can be monitored using diffusion tensor imaging [DTI] and the area of nerve fibers monitored can be analyzed using the process procedures described below. • i) the process of generating a diffusion tensor imaging [DTI] image extracted from the course of nerve fibers in the hippocampal region of the temporal lobe of the subject's brain; • ii) the process of setting five control inputs at regular intervals so that the nerve fiber pathways extracted by process (i) pass through them; • iii) a process in which the fractional anisotropy (FA) is set to 0.2 and an image of the extracted nerve fibers in the hippocampus region is obtained; • iv) a process in which the area of the nerve fiber path is calculated from the number of pixels in the image obtained during the process iii); • v) the process of detecting the manifestations of dementia or predementia based on the measured values of the area of nerve fiber pathways.
In the method described above, the hippocampal region refers to the hippocampal region and the parahippocampal gyrus region; the extracted images of nerve fibers in the hippocampal region are from the lateral and axial views.
When the fractional anisotropy (FA) value is set to 0.1, the extracted image of nerve fibers in the hippocampus region is obtained, and in the process of calculating the area of nerve fiber pathways from the number of pixels in a given image, the area of nerve pathways at FA 0.2 is divided by the area of nerve pathways at FA 0.1 to calculate the FA ratio (normalization).
as §2, §3
For a more accurate quantitative analysis, normalization was performed for each measurement. Data variability was corrected by dividing the F=0.2 value by the simultaneous F=0.1 value. The number of pixels in the corresponding neuronal bundle pathway at FA=0.2 was normalized (divided) by the number of pixels at FA=0.1, and the mean and standard error were obtained from the normalized values from 4 lateral and axial images from the right and left hemispheres of each patient. Statistical significance was assessed by Student's t-test, * indicates outputs for p¿ 0.05, ** for p¿ 0.01, indicating significant statistical significance of the results.

[5] = test system: patient with a severe form of Alzheimer's disease; conditions: one patient
Experimental: as §4, §1
The neural quality was assessed using advanced magnetic resonance imaging technology using the diffusion tensor imaging procedure.

[6] = test system: test subjects with the alipoprotein E4 (APOE4) genotype exhibiting mild cognitive impairment (MCI); conditions: APOE4 genotype subgroup of randomized clinical trials; Patent Document 1; cited from earlier work

For [HH] [hydrogen gas, Molecular hydrogen], the “safety of hydrogen gas inhalation” value [1] is given as “safety of hydrogen gas inhalation has been confirmed”, the “ability to urinate and defecate (incontinence of stool and urine)” value ([2]; ADAS-cog 48/70, 3% (v/v) hydrogen + 21% (v/v) oxygen 2x daily for one hour, after two years of inhalation) is given as “able to urinate and defecate on their own” and the “fecal incontinence, frequency or severity of difficulties” value ([2]; January 2020, inhalation started Apr. 19, 2019) is given as “no improvement in the frequency or severity of difficulties”. The independent defecation ([2]; since Nov. 18, 2020, inhalation started Apr. 19, 2019) was “able to go and defecate on their own in almost all cases”, the “changes in ADAS-cog scores versus control group not inhaling hydrogen gas” value ([3]; 6 months after cessation of inhalation, control 19 patients from past data) was “improvement persisted” and the “average change in clinical symptoms assessed by ADAS-cog (cognitive function)” value ([3]; 8 patients, hydrogen gas 3% (v/v) + oxygen 21% (v/v), 1 hour 2x per day, continuous inhalation for 6 months, FIG. 1) was “an initial deterioration, but soon showed an improvement in cognitive function”. The “average change in clinical symptoms assessed by ADAS-cog (cognitive impairment)” value ([3]; 8 patients, six months or one year after cessation of 6-month inhalation, compared to before treatment, FIG. 1) was “marked improvement in cognitive impairment”, the “statistical significance of effect on ADAS-cog versus control and on normalised DTI” value ([3]; after hydrogen gas inhalation, FIGS. 2 and 4) was “statistically significant effect” and the “changes in ADAS-cog scores versus control group not inhaling hydrogen gas” value ([3]; one year after cessation of treatment, compared to pre-treatment status) was “the improvement persisted compared to the pre-treatment status”. The “normalised DTI value FA=0.2/FA=0.1” value ([4]; 1 year after end of treatment, compared with pre-treatment condition, FIG. 4) was “beneficial effect, compared with the pre-treatment condition, persisting”, the “DTI area at FA value of 0.2 (neural quality)” value (“DTI area at FA value” below) ([4]; 6 months after cessation of hydrogen gas inhalation) was “persisted” and the “normalised DTI value FA=0.2/FA=0.1, statistical analysis” value ([4]; 6 months after the end of treatment, FIG. 4) was “significant effect persisting”. For the same compound, the “DTI area at FA value” value ([4]; after 6 months of continuous hydrogen gas inhalation, 9 patients as printed) was “neural quality was improved”, the “normalised DTI value FA=0.2/FA=0.1, statistical analysis” value ([4]; after 6 months of inhalation, FIG. 4) was “significant effect” and the “DTI area at FA value” value ([4]; one year after the end of inhalation, compared with start of inhalation) was “able to maintain a favorable result compared with the condition at the start of inhalation”. The “DTI display at FA=0.2 (qualitative neural quality)” value ([5]; FIG. 5D) was “new nerves have appeared”, the “area of nerve fibers visualized in the DTI at FA=0.2” value ([5]; after 2 years of inhalation, FIG. 5) was “increased” and the “changes in DTI over time (effect of inhalation)” value ([5]; after 6 months of hydrogen gas inhalation, FIG. 5) was “the effect did not appear”. For the same compound, the “number of pixels (DTI area) at F=0.1 and F=0.2” value ([5]; after two years of inhalation (29 to 53 months), FIG. 6) was “slight increase in the number of pixels” and the “condition of subjects with mild cognitive impairment” value [6] was “improved the condition”.

— patent US20260053847A1, “HYDROGEN-GAS-CONTAINING DRUG FOR CAUSAL TREATMENT OF ALZHEIMER'S DISEASE (DISEASE-MODIFYING DRUG)” (H2 GLOBAL GROUP S.R.O., priority 2022, published 2026)
